Publication PMC4402242 (Chemico-biological interactions, 2014)
Several values for one entry are separate records, joined by “and”; a condition that tells them apart may be missing. Identical values can stand only once. Like-named read-outs stand apart in the source and are kept apart here. Marks after values point to notes of the source that are not given here.

Experiments:
[1] = test system: Sprague-Dawley rat hepatocytes; conditions: cited from earlier work
[2] = test system: rat renal proximal tubules; conditions: rat renal proximal tubules with hepatic subcellular fractions; cited from earlier work
[3] = test system: isolated renal cortical cells (IRCC); assay: LDH release from isolated renal cortical cells; conditions: for direct nephrotoxic potential of the aminophenols in decreasing order / Cytotoxicity (LDH release) in words / LDH (% Release) 4-A2CP: IRCC; for direct nephrotoxic potential of the aminophenols in decreasing order: 0.5 and 1.0 mM; for direct nephrotoxic potential of the aminophenols in decreasing order / LDH (% Release) 4-A2CP / LDH (% Release) Pretreatment: 1 h; for Cytotoxicity (LDH release) in words: aminophenol 0.5 mM, 1 h (Fig. 2); for LDH (% Release) 4-A2CP: % of total LDH; for LDH (% Release) 4-A2CP / LDH (% Release) Pretreatment: mean ± S.E.; for Effect of pretreatment on 4-A2CP cytotoxicity: pretreatment concentration and time per Table 1; for LDH (% Release) Pretreatment: pretreatment compound alone, plus 4-A2CP vehicle
LLC-PK1 cells = conditions: cited from earlier work
[4] = test system: isolated renal cortical cells (IRCC)
[5] = test system: Fischer 344 rat renal cortical slices; conditions: cited from earlier work
peroxidase = conditions: cited from earlier work

In the case of `Nn1nnc2ccccc21` [1-aminobenzotriazole], the “Effect on 4-AP metabolism” value [1] is given as “did not alter” and the “Effect on 4-AP nephrotoxicity” value [2] is given as “did not alter”.
In the case of `Nc1cc(Cl)c(O)c(Cl)c1` [4-A2,6DCP, 4-amino-2,6-dichlorophenol], the “direct nephrotoxic potential of the aminophenols in decreasing order” value [3] is reported as 4-A2,6DCP > 4-A2CP > 4-AP > 4-A3CP and the “Cytotoxicity (LDH release) in words” value [3] is reported as “marked cytotoxicity was observed”.
With `Nc1ccc(O)c(Cl)c1` [4-A2CP, 4-amino-2-chlorophenol] the “LDH (% Release) 4-A2CP” value ([3]; 4-A2CP 0.5 mM alone) was 33.0 ± 2.7 ^b % and 52.0 ± 2.5 ^b % and 39.5 ± 0.6 ^b % and 43.0 ± 1.4 ^b % and 38.3 ± 4.9 ^b % and 43.5 ± 3.2 ^b %, the “LDH (% Release) 4-A2CP” value ([3]; 4-A2CP 1.0 mM alone) was 42.6 ± 0.6 ^b % and 54.4 ± 2.3 ^b % and 51.3 ± 3.2 ^b % and 51.4 ± 4.9 ^b % and 53.9 ± 6.5 ^b % and 49.9 ± 4.3 ^b % and the “direct nephrotoxic potential of the aminophenols in decreasing order” value [3] was 4-A2,6DCP > 4-A2CP > 4-AP > 4-A3CP. The “Cytotoxicity (LDH release) in words” value [3] was “marked cytotoxicity was observed”.
In the case of `Nc1ccc(O)cc1Cl` [4-A3CP, 4-amino-3-chlorophenol], the “direct nephrotoxic potential of the aminophenols in decreasing order” value [3] is reported as 4-A2,6DCP > 4-A2CP > 4-AP > 4-A3CP and the “Cytotoxicity (LDH release) in words” value [3] is reported as “Cytotoxicity was not observed”.
In the case of `O=C1O[C@H]([C@@H](O)CO)C(O)=C1O` [Ascorbate], the “Effect of pretreatment on 4-A2CP cytotoxicity” value (“Effect of pretreatment” below) ([3]; 4-A2CP 0.5 and 1.0 mM) is reported as “attenuated”.
For `Cc1cc(C(C)(C)C)c(O)c(C(C)(C)C)c1` [BHT, butylated hydroxytoluene], the “Effect on 4-AP cytotoxicity” value (LLC-PK1 cells) is given as “did not prevent”.
In the case of `c1ccc(Nc2ccc(Nc3ccccc3)cc2)cc1` [DPPD, N,N’-diphenyl-p-phenylenediamine], the “Effect of pretreatment” value [4] is listed as “did not reduce” and the “Effect on 4-A2,6-DCP cytotoxicity” value [5] is listed as “unable to attenuate”.
For `N[C@@H](CCC(=O)N[C@@H](CS)C(=O)NCC(=O)O)C(=O)O` [Glutathione], the “Effect of pretreatment” value ([3]; 4-A2CP 1.0 mM) was “completely attenuated”.
With `NNC(=O)c1ccncc1` [Isoniazid] the “Effect of pretreatment” value ([3]; 4-A2CP 0.5 and 1.0 mM) was “No alteration” and the “LDH (% Release) Pretreatment” value ([3]; 1.0 mM) was 18.6 ± 0.7% and 20.7 ± 0.9%.
With `CC(=O)N1CCN(c2ccc(OCC3COC(Cn4ccnc4)(c4ccc(Cl)cc4Cl)O3)cc2)CC1` (stereo not shown) [Ketoconazole] the “LDH (% Release) Pretreatment” value ([3]; 0.1 mM) was 22.4 ± 0.9% and 26.1 ± 1.7%.
For `O=C(O)CC(S)C(=O)O` (stereo not shown) [Mercaptosuccinate, mercaptosuccinic acid], the “Effect of pretreatment” value [4] was “attenuated”.
With `Cn1cc[nH]c1=S` [Methimazole] the “LDH (% Release) Pretreatment” value ([3]; 1.0 mM) was 22.0 ± 0.5% and 19.7 ± 2.2%.
In the case of `CC(C)(C(=O)c1cccnc1)c1cccnc1` [Metyrapone], the peroxidase inhibitor properties (peroxidase) is given as “but not metyrapone”, the “Effect of pretreatment” value ([3]; 4-A2CP 0.5 mM) is given as “potentiated” and the “Effect of pretreatment” value ([3]; 4-A2CP 1.0 mM) is given as “no potentiation or attenuation”. For the same molecule, the “LDH (% Release) Pretreatment” value ([3]; 1.0 mM) was 21.3 ± 0.6% and 20.6 ± 0.9%.
In the case of `CC(=O)N[C@@H](CS)C(=O)O` [N-Acetyl-L-cysteine], the “Effect of pretreatment” value ([3]; 4-A2CP 1.0 mM) is reported as “partially attenuated”.
In the case of `CCCCCCCCN` [N-Octylamine], the “Effect of pretreatment” value ([3]; 4-A2CP 0.5 and 1.0 mM) is reported as “No alteration” and the “LDH (% Release) Pretreatment” value ([3]; 0.2 mM) is reported as 27.5 ± 1.1% and 20.0 ± 0.9%.
In the case of `CCCCOCCOCCOCc1cc2c(cc1CCC)OCO2` [Piperonyl butoxide], the peroxidase inhibitor properties (peroxidase) is listed as “has peroxidase inhibitor properties”, the “Effect of pretreatment” value ([3]; 4-A2CP 0.5 and 1.0 mM) is listed as “attenuated” and the “LDH (% Release) Pretreatment” value ([3]; 1.0 mM) is listed as 19.1 ± 2.5% and 25.0 ± 1.0%.
In the case of `Cc1c(C)c2c(c(C)c1O)CC[C@@](C)(CCC[C@H](C)CCC[C@H](C)CCCC(C)C)O2` [α-Tocopherol], the “Effect on 4-A2,6-DCP cytotoxicity” value [5] is listed as “unable to attenuate”.
